Read-outs that look alike come from different tables or passages of the source.
What was measured:
MCF 7 cells [1] = assay: Cell cycle analysis (PI, flow cytometry); format: cell-based, human; conditions: MCF 7, 24 h, 5, 10 and 20 µM, compared to the control
Description: The cell cycle is a series of changes occurring from the initial phase of cell formation leading to its division as a consequence of a specific mechanism. Cell cycle phases include G1 (gap 1), S (synthesis), G2 (gap 2), and M (mitosis), with cell cycle arrest usually taking place in the G1/S or the G2/M check points. Compound 1 was used to treat the MCF 7 cell line (24 h; 5 µM, 10 µM, and 20 µM) to investigate possible cell cycle effect.
Cell cycle analysis was performed using MCF 7 cells, which were cultured in 6 well plates (1 × 10^5 cells/well in 2 mL medium), before treatment with compound 1 (0, 5, 10, and 20 μM; 24 h). Cells were washed with cold PBS and trypsinized. Collected cells were centrifuged at 350 g/5 min, and supernatant discarded. Pellets were washed in cold PBS, centrifuged, and fixed overnight in 70% ice-cold ethanol. Centrifuged cells were re-suspended in cold PBS with the addition of ribonuclease A (15 min), followed by PI (2 µL/mL). Samples were held on ice and analyzed by flow cytometry. Data analysis of the DNA contents (PI bound to DNA) of 20,000 events was carried out using Expo 32 software.

MCF 7 cells [2] = assay: Annexin V FITC/PI apoptosis assay; format: cell-based, human; conditions: MCF 7, 24 h, 5, 10 and 20 µM
Source text: Apoptosis was quantified by detecting cell surface exposure of phosphatidylserine (PS) in apoptotic cells using annexin V PI/FITC. Living cells stained with neither of the two dyes (PI−/annexin V−), while early apoptotic cells stain only with annexin V (PI−/annexin V+). In late apoptosis, cell membrane integrity is lost allowing penetration of PI (PI+/annexin V+); while in necrosis (death), cells stain with PI only (PI+/annexin V−).
The Annexin V FITC/PI assay was devised to quantify apoptosis using MCF 7 cells. MCF 7 cells were cultured in 6 well plates (1 × 10^5 cells/well) in 2 mL medium overnight at 37 °C. Then it was treated by compound 1 (24 h; final concentrations: 0, 5, 10, and 20 µM). Media was collected in tubes and kept on ice, and remaining cells were trypsinized, incubated at 37 °C and added to previous tubes. Cells were centrifuged (350 g) and supernatants were discarded. Cells were washed with PBS, centrifuged and pellets re-suspended in binding buffer (100 μL) and annexin V FITC (10 μL). Tubes were incubated at room temperature in the dark for 20 min. Binding buffer (400 μL) and 10 μL propidium iodide (PI) were added. Samples were analyzed by flow cytometry (BC FC500) within 1 h. Viable cells were differentiated from early and late apoptotic/necrotic cells by annexin V (X axis) and PI staining (Y axis).

[3] = system: HT 29 (human colon adenocarcinoma); assay: MTT cytotoxicity assay, HT 29; format: cell-based; conditions: mean ± SD
Description: (§1) Three cancerous cell lines, as well as one normal fibroblast cell line, were bought from the ATCC, USA: MCF 7 (human breast adenocarcinoma), A2780 (human ovary adenocarcinoma), HT 29 (human colon adenocarcinoma), and MRC5 (normal human fetal lung fibroblast). The culture procedure was performed as described in the literature. Briefly, the cells were sub-cultured at 37 °C, 5% CO2, 95% air, and 100% relative humidity. RPMI-1640 media (10% FBS, L-glutamine and 1% antibiotic-antimycotic) was used for all cells except for MRC5, which was maintained in Eagles minimum essential medium (EMEM, 10% FBS and 1% antibiotic-antimycotic). Cytotoxicity of compounds 1–7 and 9 was evaluated by an MTT assay as previously described. Each of the three cell lines and one normal fibroblast were cultured in 96-well plates (3 × 10^3/well), and incubated at 37 °C overnight. Final concentrations of each compound were: 0, 0.05, 0.5, 5, 25, and 50 μM in media (DMSO 0.1%). Each concentration was tested in triplicates. The plates were incubated for 72 h and then MTT (50 μL) was added to each well. Plates were incubated for 3 h, supernatant was aspirated, and 100 μL of DMSO was added to each well. Absorbance was read on a multi-plate reader. The optical density of the purple formazan A550 is proportional to the number of viable cells. Compound concentrations causing 50% inhibition (IC50) compared to control cell growth (100%) were determined. GraphPad Prism version 5.00 for Windows, GraphPad Software (San Diego, CA, USA) was used for analysis.

[4] = system: MCF 7 (human breast adenocarcinoma); assay: MTT cytotoxicity assay, MCF 7; format: cell-based; conditions: mean ± SD
Description: as §1

[5] = system: MCF 7, A2780, and HT 29 cancer cell lines; assay: MTT cytotoxicity assay, tested cancer cell lines taken together; format: cell-based, human; conditions: for IC50: 72 h, MTT assay, MCF 7, A2780, HT 29, read-out: IC50 values against the three tested cancer cell lines (range over cell lines); for folds more selective/cytotoxic against tested cancer cell lines compared to MRC5 normal cells: ratio of MRC5 IC50 to cancer cell line IC50
Description: as §1

[6] = system: A2780 (human ovary adenocarcinoma); assay: MTT cytotoxicity assay, A2780; format: cell-based; conditions: 72 h, mean ± SD
Description: as §1

[7] = system: MRC5 (normal human fetal lung fibroblast); assay: MTT cytotoxicity assay, MRC5 normal fibroblasts; format: cell-based; conditions: 72 h, normal fibroblast cell line, mean ± SD
Description: as §1

| SMILES | effect on cell cycle (in words) (MCF 7 cells [1]) | effect on cell cycle (in words) (MCF 7 cells [1]; listed as compound 1) | induction of apoptosis (in words) (MCF 7 cells [2]) | induction of apoptosis (in words) (MCF 7 cells [2]; listed as compound 1) | IC50 ([3]; 72 h) | IC50 ([3]; Homo sapiens, HT-29, 72 h) | IC50 ([4]; 72 h) | IC50 ([4]; Homo sapiens, MCF7, 72 h) | IC50 ([5]; Homo sapiens) | IC50 [5] | folds more selective/cytotoxic against tested cancer cell lines compared to MRC5 normal cells [5] | IC50 [6] | IC50 [7] |
| --- | --- | --- | --- | --- | --- | --- | --- | --- | --- | --- | --- | --- | --- |
| COc1cc2oc(-c3ccc(O)cc3)c(OC)c(=O)c2c(O)c1OC [Compound 1, 5,4’-dihydroxy-3,6,7-tri-O-methyl flavone (penduletin)] | caused G1 cell cycle arrest | caused dose-dependent G1 arrest | doubled MCF 7 apoptotic populations in a dose dependent manner | induced remarkable apoptosis in a dose dependent manner | 2160 ± 20 nM | ≤ 2000 nM | 2170 ± 260 nM | ≤ 2000 nM | 530 to 9070 nM | 530 to 2170 nM | 2–9 folds | 530 ± 450 nM | 4400 ± 1450 nM |
| COc1cc(-c2oc3cc(OC)c(OC)c(O)c3c(=O)c2OC)cc(O)c1OC [Compound 2, 5,3’-dihydroxy-3,6,7,4’,5’-penta-O-methyl flavone] | – | – | – | – | – | 9070 ± 220 nM | – | 6810 ± 40 nM | – | – | not selective | 8970 ± 1720 nM | 5460 ± 1570 nM |
| COc1cc(-c2oc3cc(OC)c(OC)c(O)c3c(=O)c2OC)cc(OC)c1OC [Compound 3, 5-hydroxy-3,6,7,3’,4’,5’-hexa-O-methyl flavone] | – | – | – | – | – | 2710 ± 1250 nM | – | 2760 ± 160 nM | 530 to 9070 nM | – | 4–5 folds | 3730 ± 1750 nM | 11700 ± 1580 nM |
| COc1cc(-c2oc3cc(OC)c(OC)c(OC(C)=O)c3c(=O)c2OC)cc(OC)c1OC [Compound 9, 5-O-acetyl-3,6,7,3’,4’,5’-hexa-O-methyl flavone] | – | – | – | – | 3180 ± 640 nM | 2000 to 3000 nM | 2190 ± 640 nM | 2000 to 3000 nM | – | – | 6–8 folds | – | 19000 ± 2980 nM |

Source: paper PMC8510169, “Isolation, Characterization, Complete Structural Assignment, and Anticancer Activities of the Methoxylated Flavonoids from Rhamnus disperma Roots” (Molecules, 2021)
